This passage reports AC50, IC50 and EC50 results from ChEMBL document CHEMBL1201862, “PubChem BioAssay data set” (2004).

As a reminder, the AC50 is the midpoint of the concentration-response curve, whichever way the signal moves. By EC50 is commonly meant the concentration that produces a half-maximal response.

Structures are written as SMILES. Calls of active or inactive are those of the source. Where only a bound is given, the exact number is not on record here.

The target of one assay is Paired box protein Pax-8 (Homo sapiens, UniProt Q06710). Description: PAX8 transcriptional activity inhibition in RMG-I – RMG-I cells, luciferase, cherry-pick, dose response (AID 687027).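 Note: luciferase reporter driven by Pax8 target thyroperoxidase promoter measured by SteadyGlo luminescence.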 The class given is functional, cell-based.
Chain of Paired box protein Pax-8 (Q06710 whole entry): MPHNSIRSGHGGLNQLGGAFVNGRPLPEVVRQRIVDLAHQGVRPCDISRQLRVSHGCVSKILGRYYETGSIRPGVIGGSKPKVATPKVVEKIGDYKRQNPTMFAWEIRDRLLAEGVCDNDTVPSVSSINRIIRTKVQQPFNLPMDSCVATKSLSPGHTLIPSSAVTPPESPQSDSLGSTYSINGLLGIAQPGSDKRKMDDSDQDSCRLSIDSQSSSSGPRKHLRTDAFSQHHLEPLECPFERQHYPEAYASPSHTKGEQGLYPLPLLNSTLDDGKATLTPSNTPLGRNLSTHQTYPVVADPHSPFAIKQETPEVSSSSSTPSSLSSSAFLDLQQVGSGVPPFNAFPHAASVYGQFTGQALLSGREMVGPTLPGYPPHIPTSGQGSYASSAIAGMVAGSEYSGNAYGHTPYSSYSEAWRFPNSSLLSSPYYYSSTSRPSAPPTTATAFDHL
Assay [1] in a line: A2780 cell killing – plate reader, dry powder samples, cytotoxicity control, dose response (AID 743046). The class given is functional, cell-based.
Another assay deals with Genome polyprotein (dengue virus type 2, UniProt P29990). Description: flavivirus cap methylation enzyme inhibition – biochemical, confirmation dose response, primary screen (AID 588689). The class given is functional.
Chain of Genome polyprotein (P29990 2492-3391 limits assumed): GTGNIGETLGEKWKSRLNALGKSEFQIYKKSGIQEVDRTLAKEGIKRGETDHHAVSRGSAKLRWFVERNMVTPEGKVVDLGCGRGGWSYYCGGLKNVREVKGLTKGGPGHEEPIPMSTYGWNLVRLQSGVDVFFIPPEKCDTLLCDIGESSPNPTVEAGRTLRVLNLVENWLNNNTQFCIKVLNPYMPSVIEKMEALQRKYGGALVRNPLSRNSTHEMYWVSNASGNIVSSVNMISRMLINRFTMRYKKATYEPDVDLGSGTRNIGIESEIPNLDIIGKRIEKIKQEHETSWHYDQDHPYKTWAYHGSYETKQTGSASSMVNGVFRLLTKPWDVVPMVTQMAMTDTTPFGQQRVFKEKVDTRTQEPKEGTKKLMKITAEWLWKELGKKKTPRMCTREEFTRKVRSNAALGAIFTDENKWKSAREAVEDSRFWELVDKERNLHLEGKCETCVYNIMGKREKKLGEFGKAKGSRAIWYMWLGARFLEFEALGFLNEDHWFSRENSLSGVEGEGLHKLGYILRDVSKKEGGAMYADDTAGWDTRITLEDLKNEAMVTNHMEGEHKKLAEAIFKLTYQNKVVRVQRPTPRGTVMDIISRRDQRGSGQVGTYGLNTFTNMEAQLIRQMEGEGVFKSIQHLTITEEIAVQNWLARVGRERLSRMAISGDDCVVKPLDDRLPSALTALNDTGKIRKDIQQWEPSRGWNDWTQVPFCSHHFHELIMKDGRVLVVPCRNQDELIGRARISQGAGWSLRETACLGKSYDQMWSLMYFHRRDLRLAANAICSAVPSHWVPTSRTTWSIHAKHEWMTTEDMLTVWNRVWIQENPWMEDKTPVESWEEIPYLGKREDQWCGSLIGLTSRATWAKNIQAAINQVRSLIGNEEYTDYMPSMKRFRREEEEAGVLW
Assay [2] deals with T1, Replicative DNA helicase DnaB (Mycobacterium tuberculosis, UniProt P9WMR3).
T1 sequence (P9WMR3 whole entry): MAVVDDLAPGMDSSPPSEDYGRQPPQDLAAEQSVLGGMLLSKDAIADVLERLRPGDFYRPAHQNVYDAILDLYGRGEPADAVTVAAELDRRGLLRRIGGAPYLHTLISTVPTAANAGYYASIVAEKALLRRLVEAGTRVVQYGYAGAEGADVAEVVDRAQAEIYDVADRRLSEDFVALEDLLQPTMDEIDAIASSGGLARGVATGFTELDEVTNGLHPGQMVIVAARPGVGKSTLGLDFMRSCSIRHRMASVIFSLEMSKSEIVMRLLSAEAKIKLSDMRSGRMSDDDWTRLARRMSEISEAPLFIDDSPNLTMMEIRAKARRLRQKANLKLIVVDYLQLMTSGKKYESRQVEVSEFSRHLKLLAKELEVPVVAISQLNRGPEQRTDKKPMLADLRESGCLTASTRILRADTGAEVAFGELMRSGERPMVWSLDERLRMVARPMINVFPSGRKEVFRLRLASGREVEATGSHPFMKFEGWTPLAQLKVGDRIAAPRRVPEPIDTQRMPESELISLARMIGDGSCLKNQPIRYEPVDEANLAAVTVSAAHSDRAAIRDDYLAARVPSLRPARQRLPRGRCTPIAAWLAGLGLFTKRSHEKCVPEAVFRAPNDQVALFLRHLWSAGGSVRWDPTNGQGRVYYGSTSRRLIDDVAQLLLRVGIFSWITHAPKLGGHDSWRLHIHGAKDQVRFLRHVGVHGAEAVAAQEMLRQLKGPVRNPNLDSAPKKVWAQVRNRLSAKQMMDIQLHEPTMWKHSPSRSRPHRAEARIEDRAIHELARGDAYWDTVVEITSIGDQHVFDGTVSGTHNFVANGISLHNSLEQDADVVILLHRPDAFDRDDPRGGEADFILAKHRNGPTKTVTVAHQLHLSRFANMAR
Description: DnaB intein splicing inhibitors, dose response, biochemical, cell-free fluorescence (AID 449749). The class given is functional.

In assay [3] the target is T2, Polyadenylate-binding protein 1 (Homo sapiens, UniProt P11940). Description: MLLE binding blockers, Cy5 peptide tracer – biochemical, fluorescence polarization, Cy5-PAM2 peptide, secondary, miRNA deadenylation inhibitor project, dose response (AID 602260). As to conditions: read-out: IC50_Mean. The class given is functional. In general terms: Fluorescence polarisation rises when a labelled molecule tumbles more slowly, as on binding a larger partner.
T2 sequence (P11940 whole entry): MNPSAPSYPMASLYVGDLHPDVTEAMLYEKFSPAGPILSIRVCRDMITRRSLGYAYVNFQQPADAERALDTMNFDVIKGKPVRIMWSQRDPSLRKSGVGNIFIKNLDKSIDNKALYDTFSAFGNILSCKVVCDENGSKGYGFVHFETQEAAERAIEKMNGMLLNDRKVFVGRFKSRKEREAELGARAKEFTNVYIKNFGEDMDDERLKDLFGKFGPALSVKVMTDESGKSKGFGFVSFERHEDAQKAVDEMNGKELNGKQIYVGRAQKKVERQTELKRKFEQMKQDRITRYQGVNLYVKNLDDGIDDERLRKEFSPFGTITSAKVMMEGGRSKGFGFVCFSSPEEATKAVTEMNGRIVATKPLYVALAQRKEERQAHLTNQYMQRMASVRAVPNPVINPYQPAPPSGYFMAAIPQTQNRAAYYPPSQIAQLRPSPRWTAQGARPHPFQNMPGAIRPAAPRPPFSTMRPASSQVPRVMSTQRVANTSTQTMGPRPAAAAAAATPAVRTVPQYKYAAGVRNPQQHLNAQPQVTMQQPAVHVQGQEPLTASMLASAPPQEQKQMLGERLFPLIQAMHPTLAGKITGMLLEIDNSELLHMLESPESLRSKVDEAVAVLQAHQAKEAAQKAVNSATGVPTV

For assay [4], the target named is T3, Tyrosyl-DNA phosphodiesterase 2 (Homo sapiens, UniProt O95551).
T3 sequence (O95551 whole entry): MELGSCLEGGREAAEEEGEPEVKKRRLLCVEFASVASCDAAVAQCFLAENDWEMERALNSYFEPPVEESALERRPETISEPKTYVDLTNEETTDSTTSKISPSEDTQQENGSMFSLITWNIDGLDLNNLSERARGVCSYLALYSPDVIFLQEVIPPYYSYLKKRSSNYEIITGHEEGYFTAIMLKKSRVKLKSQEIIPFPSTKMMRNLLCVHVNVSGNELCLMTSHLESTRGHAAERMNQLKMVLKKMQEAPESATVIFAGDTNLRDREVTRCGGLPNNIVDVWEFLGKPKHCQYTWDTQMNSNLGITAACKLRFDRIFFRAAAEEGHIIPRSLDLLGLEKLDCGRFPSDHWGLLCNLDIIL
The assay is described as follows: potency against TDP2 phosphodiesterase activity – biochemical, epi absorbance, IC50, dose response (AID 743297).

Another assay deals with T4, Protein RecA (Mycobacterium tuberculosis, UniProt P9WHJ3).
T4 sequence (P9WHJ3 whole entry): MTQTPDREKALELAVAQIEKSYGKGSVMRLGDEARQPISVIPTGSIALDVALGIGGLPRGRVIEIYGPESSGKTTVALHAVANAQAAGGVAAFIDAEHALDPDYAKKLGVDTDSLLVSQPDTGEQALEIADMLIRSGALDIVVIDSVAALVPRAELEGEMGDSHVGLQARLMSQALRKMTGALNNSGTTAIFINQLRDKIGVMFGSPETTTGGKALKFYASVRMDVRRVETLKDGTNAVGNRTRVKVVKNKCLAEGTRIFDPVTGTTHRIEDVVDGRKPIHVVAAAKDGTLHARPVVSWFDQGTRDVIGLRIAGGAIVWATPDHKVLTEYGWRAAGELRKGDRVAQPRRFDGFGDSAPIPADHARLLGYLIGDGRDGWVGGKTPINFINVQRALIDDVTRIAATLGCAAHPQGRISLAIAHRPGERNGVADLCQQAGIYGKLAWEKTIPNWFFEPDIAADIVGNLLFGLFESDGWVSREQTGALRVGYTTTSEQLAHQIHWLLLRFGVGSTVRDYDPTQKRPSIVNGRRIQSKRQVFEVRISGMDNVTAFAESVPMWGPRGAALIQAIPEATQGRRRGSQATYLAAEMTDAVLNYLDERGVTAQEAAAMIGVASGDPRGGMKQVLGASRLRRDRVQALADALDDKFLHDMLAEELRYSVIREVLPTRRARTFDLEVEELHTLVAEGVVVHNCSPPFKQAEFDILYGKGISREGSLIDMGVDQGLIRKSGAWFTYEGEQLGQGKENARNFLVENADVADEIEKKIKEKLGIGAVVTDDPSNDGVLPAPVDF
Description: Fluorescence Cell-Free Homogeneous Dose Retest to Identify Inhibitors of RecA-Intein Splicing Activity. [Related pubchem assays (depositor defined):AID2097, AID2223, AID489010, AID492950]. In kind it is functional.

The target in assay [5] is T2, Polyadenylate-binding protein 1. Description: MLLE domain peptide-binding blockers, IC50 – biochemical, fluorescence polarization, FITC-PAM2 peptide, dose response (AID 602259). The class given is functional. As to conditions: read-out: IC50_Mean.
Assay [6] is described as follows: reduced cellular PGC1a acetyl-lysine signal – cell-based, cherry-picked samples, dose response (AID 720514).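 Note: potency may reflect raised or lowered acetylation signal.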 The class given is functional.
The nature of assay [7]: CellTiter-Glo luminescence survival assay, SW480 colon tumor line, concentration-response curve, half-maximal inhibitory concentration (AID 1117338). In kind it is functional. On the technique in general: ATP-based viability assays read luminescence as a measure of living cells.
Assay [8] in a line: SNU-C1 cell viability reduction, dose response, CellTiter-Glo luminescence (AID 1117323). The class given is functional, cell-based.
Assay [9] in a line: cytotoxicity toward HT-29 cells – cell-based, CellTiter-Glo luminescence, IC50, dose response (AID 1117330). In kind it is functional.
Assay [10] can be described thus: Reduced DLD-1 viability, concentration-response, CellTiter-Glo luminescence (AID 1117352). The class given is functional.
Assay [11] in a line: cytotoxicity toward Colo320 cells – cell-based, CellTiter-Glo luminescence, IC50, dose response (AID 1117334). The class given is functional. As to conditions: COLO 320.
A short description of assay [12]: RKO cell viability reduction, dose response, CellTiter-Glo luminescence (AID 1117322). The class given is functional.
Assay [13] in a line: cytotoxicity toward HCT116 cells – cell-based, CellTiter-Glo luminescence, IC50, dose response (AID 1117332). As to conditions: HCT-116. In kind it is functional.

As to `C[C@@H]1CN([C@@H](C)CO)C(=O)Cc2cc(NC(=O)NC3CCCCC3)ccc2O[C@@H]1CN(C)Cc1ccc(-c2ccccc2)cc1`, the AC50 was 30.6 µM (active) on Paired box protein Pax-8 and 0.296 µM (active) in [1].

For the compound `Cc1[nH]n(-c2ccccc2)c(=O)c1C(c1ccc(C(=O)O)cc1)c1c(C)[nH]n(-c2ccccc2)c1=O`, the IC50 on Genome polyprotein is 20.9 µM (active); in assay [3], > 66 µM (inactive); in assay [4] it was > 0.528 µM (active); in assay [5], > 66 µM (inactive). The AC50 in assay [2] was 0.915 µM (active). Moreover, the EC50 on Protein RecA is 0.656 µM (active).

Consider `O=C(Nc1cccc(F)c1)N1CC(=O)N2[C@@H](CO)[C@@H](c3ccc(C#Cc4cccnc4)cc3)[C@@H]2C1`, for which the AC50 in assay [6] is 4.54 µM (active).

Take `O=C(O)c1ccccc1S` [THIOSALICYLIC ACID]: the IC50 in [7], in [8], in assay [9], in assay [10], in [11] and in assay [12] was > 20 µM (inactive) each time. Moreover, the IC50 in assay [13] is > 20 µM (inactive).
